Data as given in PubChem BioAssay AID2635 (Broad Institute, 2010).
Results filed as inconclusive are left out. Activity calls are given as the source filed them. No rule for the calls is given here.

System: BJ-TERT RAS-dependent fibroblast cytotoxicity, fluorescence
Assay: killing of RAS-driven BJ-TERT cells – cell-based, fluorescence viability readout, dose response (AID 2635)

| SMILES | EC50 |
| --- | --- |
| CN1CCN(C(=O)CCCN2C(=O)/C(=C/c3cccc(Br)c3)SC2=S)CC1 | > 6.67 µM (inactive) |
| C/C(=N\Nc1ncc(Cl)cc1Cl)c1ccccn1 | 0.0273 µM |
| Cc1ccc(Nc2nc(N)nc(CCl)n2)c(C)c1 | > 6.67 µM (inactive) |
| COc1ccc(S(=O)(=O)N2CCOCC2)cc1NC(=O)CCNC(=O)c1ccc(Br)cc1 | > 6.67 µM (inactive) |
| CC[C@@]1(O)C(=O)OCc2c1cc1n(c2=O)Cc2cc3c(NC(=O)CN)cccc3nc2-1 | 5.85 µM |
| CCN1/C(=C\C=C\C2=[N+](CC)c3ccccc3C2(C)C)C(C)(C)c2ccccc21 | 0.287 µM |
| COc1ccc(C(C(=O)NC2CCCCC2)N(C(=O)CCl)c2cccc(Cl)c2)cc1 (stereo not drawn) | > 2.08 µM (inactive) |
| CC1=CC(=O)C=C(C)C1=NOc1ccccc1[N+](=O)[O-] | > 6.67 µM (inactive) |
| O=S(=O)(c1ccc2c(c1)C(=NO)c1cc(S(=O)(=O)N3CCCCC3)ccc1-2)N1CCCCC1 | 2.58 µM |
| CC(Oc1ccc(Cl)cc1Cl)c1nc(-c2ccc(NC(=O)c3cccnc3)cc2)no1 (stereo not drawn) | > 6.67 µM (inactive) |
| CC[C@@]1(O)C(=O)OCc2c1cc1n(c2=O)Cc2cc3c(N)cccc3nc2-1 | 0.052 µM |
| COc1ccc(Cc2nc(-c3ccc(NC(=O)c4cccnc4)cc3)no2)cc1 | > 6.67 µM (inactive) |
| O=C(CCN1C(=O)/C(=C\c2cccc(Br)c2)SC1=S)NCCCN1CCOCC1 | > 6.67 µM (inactive) |
| O=C(NCCOc1cccnc1)c1ccc(OC2CCN(Cc3ccccn3)CC2)cc1 | 5.19 µM |
| O=C(COc1ccc(Cl)cc1)Nc1ccc(C(=O)NCc2cccnc2)cc1 | > 6.67 µM (inactive) |
| COc1ccc(N(C(=O)CCl)C(C(=O)NCCc2ccccc2)c2cccs2)cc1 (stereo not drawn) | 4.89 µM |
| CC[C@H]1CN2CCc3cc(OC)c(OC)cc3[C@@H]2C[C@@H]1C[C@H]1NCCc2cc(OC)c(OC)cc21 | 0.0103 µM |
| Cc1cccnc1Nc1nc(-c2ccccn2)cs1 | 0.985 µM |
| CCc1ccc(/C=C2/SC(=S)N(CCC(=O)Nc3cccnc3)C2=O)cc1 | > 6.67 µM (inactive) |
| CC(C)(C)c1nnc(N/N=C/c2cc(Br)ccc2O)n(N)c1=O | 1.91 µM |

| SMILES | EC50 |
| --- | --- |
| O=S(=O)(c1ccc(NC(=S)NCc2cccnc2)cc1)N1CCCCC1 | > 6.67 µM (inactive) |
| Cc1cccc(Nc2nc(N)nc(CCl)n2)c1 | > 6.67 µM (inactive) |
| Oc1ccccc1N=Nc1nc(-c2ccccc2)c(-c2ccccc2)[nH]1 | 0.374 µM |
| COc1ccc(OC)c(Nc2nc(N)nc(CCl)n2)c1 | > 6.67 µM (inactive) |
| C=CCOc1ccccc1CN(C(=O)CCl)c1ccc2c(c1)OCO2 | > 6.67 µM (inactive) |
| Nc1nc(CCl)nc(Nc2cccc3ccccc23)n1 | > 6.67 µM (inactive) |
| CC(C)(C)c1ccc(C(=O)Nc2ccc(C(=O)NCc3cccnc3)cc2)cc1 | > 6.67 µM (inactive) |
| C/C(=N\Nc1ccc2nncn2n1)c1ccccn1 | 5.47 µM |
| CC(=O)Nc1ccc(NC(=O)CN(c2cccc([N+](=O)[O-])c2)S(C)(=O)=O)cc1 | > 6.67 µM (inactive) |
| CC[C@@]1(O)C(=O)OCc2c1cc1n(c2=O)Cc2cc3ccccc3nc2-1 | 0.0178 µM |
| CCc1ccc(/C=C2/SC(=S)N(CCC(=O)NCCCN3CCOCC3)C2=O)cc1 | > 6.67 µM (inactive) |
| COc1ccc(N(C(=O)CCl)C(C(=O)NCCc2ccccc2)c2cccs2)cc1Cl (stereo not drawn) | > 2.08 µM (inactive) |
| O=C(Cc1ccc([N+](=O)[O-])cc1)N/N=C/c1ccc([N+](=O)[O-])o1 | > 6.67 µM (inactive) |
| CCc1ccc(/C=C2\SC(=S)N(CCC(=O)NCCCN3CCOCC3)C2=O)cc1 | > 6.67 µM (inactive) |
| O=[N+]([O-])c1ccc(N=Nc2ncc[nH]2)cc1 | > 6.67 µM (inactive) |
| COc1ccc(C[C@H]2NC[C@H](O)[C@H]2OC(C)=O)cc1 | 0.0456 µM |
| Cc1ccc(C(=O)Sc2cccccc2=O)cc1 | 0.13 µM |
| Cc1cccc(OCC(=O)Nc2ccc(C(=O)NCc3cccnc3)cc2)c1 | > 6.67 µM (inactive) |
| O=C(CCCCCN1C(=O)c2cccc3cccc(c23)C1=O)NCc1cccnc1 | > 6.67 µM (inactive) |
| O=C(NCc1cccnc1)c1ccc(NC(=O)c2cccc([N+](=O)[O-])c2)cc1 | > 6.67 µM (inactive) |

| SMILES | EC50 |
| --- | --- |
| O=C(CCl)N=c1sccn1Cc1ccccc1Cl | > 2.08 µM (inactive) |
| CCOc1ccc(CC(=O)Nc2ccc(NC(=O)c3ccco3)cc2)cc1OCC | > 6.67 µM (inactive) |
| COc1cccc(/C=C2\SC(=S)N(CCCC(=O)N(CCO)c3ccccc3)C2=O)c1 | > 6.67 µM (inactive) |
| Cc1ccc(N(C(=O)CCl)C(C(=O)NC2CCCCC2)c2cccnc2)cc1C (stereo not drawn) | 0.26 µM |
| Cc1ccccc1Nc1nc(N)nc(CCl)n1 | > 6.67 µM (inactive) |
| O=C(NCc1cccnc1)c1ccc(NC(=O)c2ccc([N+](=O)[O-])cc2)cc1 | > 6.67 µM (inactive) |
| COC(=O)C[C@](O)(CCCC(C)(C)O)C(=O)O[C@@H]1C(OC)=C[C@]23CCCN2CCc2cc4c(cc2[C@H]13)OCO4 | 0.00683 µM |
| CC[C@@]1(O)C(=O)OCc2c1cc1n(c2=O)Cc2cc3c(CN(C)C)c(O)ccc3nc2-1 | 0.23 µM |
| COC(=O)[C@@H]1Cc2c([nH]c3ccccc23)C(C)(C)N1C(=O)CCl | > 6.67 µM (inactive) |
| Cc1cccc(Nc2nc(N)nc(CCl)n2)c1C | > 6.67 µM (inactive) |
| Cc1ccc(/C=C2\SC(=S)N(CCCC(=O)N3CCOCC3)C2=O)cc1 | > 6.67 µM (inactive) |
| CC(C)C(=O)Nc1ccc(C(=O)NCc2cccnc2)cc1 | > 6.67 µM (inactive) |
| O=C(N/N=C/c1cccnc1)c1ccc(NC(=O)C(c2ccccc2)c2ccccc2)cc1 | > 6.67 µM (inactive) |
| COc1cccc(N(C(=O)CCl)C(C(=O)NCCc2ccccc2)c2cccs2)c1 (stereo not drawn) | 6.05 µM |
| CCN(CC)c1ccc(/C=N/NC(=O)c2nnn(-c3nonc3N)c2C(C)C)c(O)c1 | 0.954 µM |
| C=C1C(=O)O[C@@H]2C[C@@H](C)[C@@H]3C=CC(=O)[C@@]3(C)[C@@H](OC(=O)CC(=O)O[C@H]3[C@@H]4C(=C)C(=O)O[C@@H]4C[C@@H](C)[C@@H]4C=CC(=O)[C@]43C)[C@H]12 | 0.144 µM |
| O=C(NCc1cccnc1)c1ccc(-c2cc3ccccc3oc2=O)cc1 | > 6.67 µM (inactive) |
| COc1ccc(C(C(=O)NC2CCCCC2)N(C(=O)CCl)c2ccc(C)cc2)cc1 (stereo not drawn) | > 6.67 µM (inactive) |
